In US11590116B2 (THERAVANCE BIOPHARMA R&D IP, LLC, priority 2019, dated 2023):
Read-outs that look alike come from different tables or passages of the source.

How the values were obtained:
[1] = test system: TGF-β-stimulated SMAD3 phosphorylation in BEAS-2B cells; assay: Cellular ALK5 potency assay, inhibition of TGF-β stimulated pSMAD3 formation in BEAS-2B cells; assay type: cell-based; details: Homo sapiens, read-out: BEAS2B pIC50 (converted)
Outline: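 SMAD3 phosphorylation was measured by AlphaLISA after 30 min TGF-β stimulation (10 ng/mL final) of BEAS-2B cells preincubated 1 h with compound at 37 °C. Results given as pIC50.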

[2] = biological target: T1, recombinant human ALK5 (TGF-βR1) protein (Homo sapiens, UniProt P36897); assay: Biochemical ALK5 (TGF-βR1) assay to measure pKi (LANCE Ultra ULight kinase assay); details: apparent pKi from pIC50 by Cheng-Prusoff
T1 construct: purchased Life Technologies PR9075A
T1 sequence (P36897 34-503): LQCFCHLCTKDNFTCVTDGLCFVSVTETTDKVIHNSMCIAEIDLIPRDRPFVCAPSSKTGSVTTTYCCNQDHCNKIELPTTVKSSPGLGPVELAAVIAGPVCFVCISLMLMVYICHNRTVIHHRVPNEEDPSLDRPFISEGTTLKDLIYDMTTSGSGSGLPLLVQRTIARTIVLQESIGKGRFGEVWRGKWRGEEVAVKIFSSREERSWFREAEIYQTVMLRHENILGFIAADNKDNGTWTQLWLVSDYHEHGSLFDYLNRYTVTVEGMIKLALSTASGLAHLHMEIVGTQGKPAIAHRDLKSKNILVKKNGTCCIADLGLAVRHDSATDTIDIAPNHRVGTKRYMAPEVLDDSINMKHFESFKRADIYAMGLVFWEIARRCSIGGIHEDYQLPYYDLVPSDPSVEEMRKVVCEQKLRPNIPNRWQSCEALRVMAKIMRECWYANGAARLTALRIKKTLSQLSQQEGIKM
Outline: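 Dose range 10 μM–25 pM; enzyme + compound 60 min RT; ATP added (5× stock 125 μM, 2 mM DTT); 60 min 37 °C; stop with EDTA + Eu anti-phospho-Topo IIα Thr1342 Ab; TR-FRET ex 320/340, em 665 nm. 4-param pIC50 → pKi (Cheng-Prusoff).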

[3] = inhibition of TGF-β stimulated pSMAD3 formation, BEAS-2B cells

| Structure (SMILES) | Ki ([2]; read-out: ALK5 pKi (converted)) [nM] | IC50 [1, 3] [nM] | IC50 ([1]; BEAS-2B) [nM] | Ki ([2]; ALK5 pKi) [nM] |
| --- | --- | --- | --- | --- |
| Cc1cccc(-c2[nH]cnc2-c2ccc3ncc(C4=C[C@H](C)N[C@H](C)C4)cc3c2)n1 [Compound 451, 3-[(2R,6S)-2,6-dimethyl-1,2,3,6-tetrahydropyridin-4-yl]-6-[5-(6-methyl-2-pyridyl)-1H-imidazol-4-yl]quinoline] | 0.0398 to 0.316 | 25.1 to 158 | – | – |
| Cc1cccc(-c2[nH]cnc2-c2ccc3ncc(N4CC(CN)C4)cc3c2)n1 [Compound 68, [1-[6-[5-(6-methyl-2-pyridyl)-1H-imidazol-4-yl]-3-quinolyl]azetidin-3-yl]methanamine] | 0.0398 to 0.316 | < 20 | – | – |
| Cc1cccc(-c2n[nH]cc2-c2ccc3ncc(C4=CCNCC4)cc3n2)n1 [Compound 15, 2-[3-(6-methyl-2-pyridyl)-1H-pyrazol-4-yl]-7-(1,2,3,6-tetrahydropyridin-4-yl)-1,5-naphthyridine] | < 0.0316 | < 20 | – | – |
| Cc1cccc(-c2[nH]cnc2-c2ccc3ncc(-c4ccc(C(=O)OC[C@H]5CCCNC5)cn4)cc3c2)n1 [Compound 1224, [(3S)-3-piperidyl]methyl 6-[6-[5-(6-methyl-2-pyridyl)-1H-imidazol-4-yl]-3-quinolyl]pyridine-3-carboxylate] | 0.0398 to 0.316 | 25.1 to 158 | – | – |
| Cc1cccc(-c2[nH]cnc2-c2ccc3ncc(C(=O)OC4CNC4)cc3c2)n1 [Compound 739, azetidin-3-yl 6-[5-(6-methyl-2-pyridyl)-1H-imidazol-4-yl]quinoline-3-carboxylate] | 0.0398 to 0.316 | 25.1 to 158 | – | – |
| CNCc1ccnc2ccc(-c3c[nH]nc3-c3cccc(C)n3)nc12 [Compound 829, N-methyl-1-[6-[3-(6-methyl-2-pyridyl)-1H-pyrazol-4-yl]-1,5-naphthyridin-4-yl]methanamine] | 0.398 to 3.16 | 25.1 to 158 | – | – |
| Cc1nc(-c2nc3ccccn3c2-c2ccc3ncc(-c4cn5c(n4)CNCC5)cc3n2)ccc1F [Compound 555, 2-[2-(5-fluoro-6-methyl-2-pyridyl)imidazo[1,2-a]pyridin-3-yl]-7-(5,6,7,8-tetrahydroimidazo[1,2-a]pyrazin-2-yl)-1,5-naphthyridine] | 0.0398 to 0.316 | 25.1 to 158 | – | – |
| Cc1nc(-c2n[nH]cc2-c2ccc3ncc(-c4nnn5c4NCC5)cc3n2)ccc1F [Compound 520, 7-(5,6-dihydro-4H-imidazo[1,2-c]triazol-3-yl)-2-[3-(5-fluoro-6-methyl-2-pyridyl)-1H-pyrazol-4-yl]-1,5-naphthyridine] | < 0.0316 | 25.1 to 158 | – | – |
| CCC(=O)Nc1cnc2ccc(-c3c[nH]nc3-c3cccc(C)n3)nc2c1 [Compound 234, N-[6-[3-(6-methyl-2-pyridyl)-1H-pyrazol-4-yl]-1,5-naphthyridin-3-yl]propanamide] | < 0.0316 | < 20 | – | – |
| Cc1cccc(-c2n[nH]cc2-c2ccc3nccc(C(=O)OCCN4CCOCC4)c3n2)n1 [Compound 827, 2-morpholinoethyl 6-[3-(6-methyl-2-pyridyl)-1H-pyrazol-4-yl]-1,5-naphthyridine-4-carboxylate] | 0.398 to 3.16 | 25.1 to 158 | – | – |
| Cc1cccc(-c2[nH]ncc2-c2ccc3ncc(C(=O)OC4CCC5(CNC5)C4)cc3n2)n1 (centres unmarked) [Compound 62, 2-azaspiro[3.4]octan-6-yl 6-[5-(6-methyl-2-pyridyl)-1H-pyrazol-4-yl]-1,5-naphthyridine-3-carboxylate] | 0.0398 to 0.316 | 200 to 1260 | – | – |
| Cc1cccc(-c2[nH]cnc2-c2ccc3ncc(-c4ccc(C(=O)OC5CNC5)cn4)cc3c2)n1 [Compound 1027, azetidin-3-yl 6-[6-[5-(6-methyl-2-pyridyl)-1H-imidazol-4-yl]-3-quinolyl]pyridine-3-carboxylate] | 0.0398 to 0.316 | 25.1 to 158 | – | – |
| CCc1cccc(-c2n[nH]cc2-c2ccc3ncc(N4CCC(NC)CC4)cc3n2)n1 [Compound 377, 1-[6-[3-(6-ethyl-2-pyridyl)-1H-pyrazol-4-yl]-1,5-naphthyridin-3-yl]-N-methyl-piperidin-4-amine] | < 0.0316 | 25.1 to 158 | – | – |
| Cc1cccc(-c2[nH]cnc2-c2ccc3ncc(-c4ccc(C(=O)O[C@@H]5CCN(C)C5)nc4)cc3c2)n1 [Compound 273, (R)-1-methylpyrrolidin-3-yl 5-(6-(5-(6-methylpyridin-2-yl)-1H-imidazol-4-yl)quinolin-3-yl)picolinate] | < 0.0316 | 25.1 to 158 | – | – |
| Cc1cccc(-c2nnn(Cc3ccccc3)c2-c2ccc3ncc(-c4cn[nH]c4)cc3n2)n1 [Compound 170, 2-[3-benzyl-5-(6-methyl-2-pyridyl)triazol-4-yl]-7-(1H-pyrazol-4-yl)-1,5-naphthyridine] | 0.0398 to 0.316 | 25.1 to 158 | – | – |
| Cc1cccc(-c2[nH]ncc2-c2ccc3nccc(C(=O)O[C@H]4CC[C@@](C)(N)CC4)c3c2)n1 [Compound 1155, (4-amino-4-methyl-cyclohexyl) 6-[5-(6-methyl-2-pyridyl)-1H-pyrazol-4-yl]quinoline-4-carboxylate] | 3.98 to 31.6 | 200 to 1260 | – | – |
| Cc1cccc(-c2n[nH]cc2-c2ccc3ncc(-c4c[nH]cn4)cc3n2)n1 [Compound 157, 7-(1H-imidazol-4-yl)-2-[3-(6-methyl-2-pyridyl)-1H-pyrazol-4-yl]-1,5-naphthyridine] | 0.0398 to 0.316 | 25.1 to 158 | – | – |
| Cc1cccc(-c2n[nH]cc2-c2ccc3ncc(C4=C[C@H]5CC[C@@H](C4)N5)cc3n2)n1 (racemic) [Compound 161, 2-[3-(6-methyl-2-pyridyl)-1H-pyrazol-4-yl]-7-[rac-(1R,5S)-8-azabicyclo[3.2.1]oct-2-en-3-yl]-1,5-naphthyridine] | – | – | 25.1 to 158 | 0.0398 to 0.316 |
| Cc1cccc(-c2n[nH]cc2-c2ccc3ncc(-c4cnn(C5COC5)c4)cc3n2)n1 [Compound 669, 2-[3-(6-methyl-2-pyridyl)-1H-pyrazol-4-yl]-7-[1-(oxetan-3-yl)pyrazol-4-yl]-1,5-naphthyridine] | < 0.0316 | < 20 | – | – |

Now from value to compound, other results behind:

| Ki ([2]; read-out: ALK5 pKi (converted)) [nM] | Structure (SMILES) | IC50 [1, 3] [nM] | IC50 ([1]; BEAS-2B) [nM] | Ki ([2]; ALK5 pKi) [nM] |
| --- | --- | --- | --- | --- |
| 0.0398 to 0.316 | Cc1cccc(-c2n[nH]cc2-c2ccc3nccc(-c4cnn(CCN5CCOCC5)c4)c3n2)n1 [Compound 833, 4-[2-[4-[6-[3-(6-methyl-2-pyridyl)-1H-pyrazol-4-yl]-1,5-naphthyridin-4-yl]pyrazol-1-yl]ethyl]morpholine] | 25.1 to 158 | – | – |
| 0.398 to 3.16 | Cc1cccc(-c2n[nH]cc2-c2ccc3ncc(N(C)CC(=O)N4CCOCC4)cc3n2)n1 [Compound 181, 2-[methyl-[6-[3-(6-methyl-2-pyridyl)-1H-pyrazol-4-yl]-1,5-naphthyridin-3-yl]amino]-1-morpholino-ethanone] | 25.1 to 158 | – | – |
| 0.0398 to 0.316 | Cc1cccc(-c2[nH]ncc2-c2ccc3nccc(C(=O)OC[C@@H]4CCCN4)c3c2)n1 [Compound 1233, [(2S)-pyrrolidin-2-yl]methyl 6-[5-(6-methyl-2-pyridyl)-1H-pyrazol-4-yl]quinoline-4-carboxylate] | 25.1 to 158 | – | – |
| 0.0398 to 0.316 | CN[C@H]1CC[C@@H](OC(=O)c2cnc3ccc(-c4cn[nH]c4-c4cccc(C)n4)cc3c2)CC1 [Compound 1195, [4-(methylamino)cyclohexyl] 6-[5-(6-methyl-2-pyridyl)-1H-pyrazol-4-yl]quinoline-3-carboxylate] | 25.1 to 158 | – | – |
| 0.0398 to 0.316 | Cc1cccc(-c2[nH]nnc2-c2ccc3ncc(N4CCC(N5CCN(C)CC5)CC4)cc3c2)n1 [Compound 346, 3-[4-(4-methylpiperazin-1-yl)-1-piperidyl]-6-[5-(6-methyl-2-pyridyl)-1H-triazol-4-yl]quinoline] | 25.1 to 158 | – | – |
| 0.0398 to 0.316 | Cc1cccc(-c2n[nH]cc2-c2ccc3ncc(C4=CCC(N(C)C)CC4)cc3n2)n1 (centres unmarked) [Compound 685, N,N-dimethyl-4-[6-[3-(6-methyl-2-pyridyl)-1H-pyrazol-4-yl]-1,5-naphthyridin-3-yl]cyclohex-3-en-1-amine] | 25.1 to 158 | – | – |
| 0.398 to 3.16 | Cc1cccc(-c2[nH]ncc2-c2ccc3nccc(C(=O)OC[C@H]4CCCCN4)c3c2)n1 [Compound 1095, [(2R)-2-piperidyl]methyl 6-[5-(6-methyl-2-pyridyl)-1H-pyrazol-4-yl]quinoline-4-carboxylate] | 25.1 to 158 | – | – |
| 0.0398 to 0.316 | Cc1cccc(-c2[nH]cnc2-c2ccc3ncc(N4CCN[C@@H](C(=O)O)C4)cc3c2)n1 [Compound 168, (2R)-4-[6-[5-(6-methyl-2-pyridyl)-1H-imidazol-4-yl]-3-quinolyl]piperazine-2-carboxylic acid] | 1580 to 10000 | – | – |
| 0.398 to 3.16 | Cc1cccc(-c2n[nH]cc2-c2ccc3nccc(N4CCC(N(C)C)C4)c3c2)n1 (racemic) [Compound 867, rac-(3S)-N,N-dimethyl-1-[6-[3-(6-methyl-2-pyridyl)-1H-pyrazol-4-yl]-4-quinolyl]pyrrolidin-3-amine] | 200 to 1260 | – | – |
